Reference: ChEMBL document CHEMBL5390317, “Novel Indane-Containing NBTIs with Potent Anti-Gram-Negative Activity and Minimal hERG Inhibition” (ACS Med Chem Lett, 2023)
Converted amounts (≈) assume the structure as drawn.

How the values were obtained:
[1] = biological target: DNA gyrase (Escherichia coli, UniProt P0AES4+P0AES6); assay: Inhibition of Escherichia coli DNA gyrase incubated for 80 mins by Transcreener ADP2 FI assay; type: protein-complex assay
[2] = system: Escherichia coli; assay: Antibacterial activity against Escherichia coli ATCC 35218 assessed as inhibition in bacterial growth incubated for 20 to 24 hrs by CLSI based broth microdilution method; type: functional
[3] = system: Escherichia coli; assay: Antibacterial activity against Escherichia coli ATCC BAA-2340 assessed as inhibition in bacterial growth incubated for 20 to 24 hrs by CLSI based broth microdilution method; type: functional
[4] = system: Acinetobacter baumannii; assay: Antibacterial activity against Acinetobacter baumannii ATCC 51432 assessed as inhibition in bacterial growth incubated for 20 to 24 hrs by CLSI based broth microdilution method; type: functional
[5] = system: Klebsiella pneumoniae; assay: Antibacterial activity against Klebsiella pneumoniae ATCC 700603 assessed as inhibition in bacterial growth incubated for 20 to 24 hrs by CLSI based broth microdilution method; type: functional
[6] = system: Klebsiella pneumoniae; assay: Antibacterial activity against Klebsiella pneumoniae ATCC BAA-2146 assessed as inhibition in bacterial growth incubated for 20 to 24 hrs by CLSI based broth microdilution method; type: functional
[7] = system: Pseudomonas aeruginosa; assay: Antibacterial activity against Pseudomonas aeruginosa NCTC 11451 assessed as inhibition in bacterial growth incubated for 20 to 24 hrs by CLSI based broth microdilution method; type: functional
[8] = system: Staphylococcus aureus; assay: Antibacterial activity against Staphylococcus aureus ATCC BAA-1556 assessed as inhibition in bacterial growth incubated for 20 to 24 hrs by CLSI based broth microdilution method; type: functional
[9] = Inhibition of Escherichia coli topoisomerase 4 incubated for 120 mins by Transcreener ADP2 FI assay
[10] = biological target: Voltage-gated inwardly rectifying potassium channel KCNH2 (Homo sapiens, UniProt Q12809); assay: (§1) Inhibition of hERG potassium channel expressed in CHO cells by electrophysiological patch clamp assay; type: toxicity, cell-based; details: for IC20: human, cho
Voltage-gated inwardly rectifying potassium channel KCNH2, sequence (Q12809 whole entry): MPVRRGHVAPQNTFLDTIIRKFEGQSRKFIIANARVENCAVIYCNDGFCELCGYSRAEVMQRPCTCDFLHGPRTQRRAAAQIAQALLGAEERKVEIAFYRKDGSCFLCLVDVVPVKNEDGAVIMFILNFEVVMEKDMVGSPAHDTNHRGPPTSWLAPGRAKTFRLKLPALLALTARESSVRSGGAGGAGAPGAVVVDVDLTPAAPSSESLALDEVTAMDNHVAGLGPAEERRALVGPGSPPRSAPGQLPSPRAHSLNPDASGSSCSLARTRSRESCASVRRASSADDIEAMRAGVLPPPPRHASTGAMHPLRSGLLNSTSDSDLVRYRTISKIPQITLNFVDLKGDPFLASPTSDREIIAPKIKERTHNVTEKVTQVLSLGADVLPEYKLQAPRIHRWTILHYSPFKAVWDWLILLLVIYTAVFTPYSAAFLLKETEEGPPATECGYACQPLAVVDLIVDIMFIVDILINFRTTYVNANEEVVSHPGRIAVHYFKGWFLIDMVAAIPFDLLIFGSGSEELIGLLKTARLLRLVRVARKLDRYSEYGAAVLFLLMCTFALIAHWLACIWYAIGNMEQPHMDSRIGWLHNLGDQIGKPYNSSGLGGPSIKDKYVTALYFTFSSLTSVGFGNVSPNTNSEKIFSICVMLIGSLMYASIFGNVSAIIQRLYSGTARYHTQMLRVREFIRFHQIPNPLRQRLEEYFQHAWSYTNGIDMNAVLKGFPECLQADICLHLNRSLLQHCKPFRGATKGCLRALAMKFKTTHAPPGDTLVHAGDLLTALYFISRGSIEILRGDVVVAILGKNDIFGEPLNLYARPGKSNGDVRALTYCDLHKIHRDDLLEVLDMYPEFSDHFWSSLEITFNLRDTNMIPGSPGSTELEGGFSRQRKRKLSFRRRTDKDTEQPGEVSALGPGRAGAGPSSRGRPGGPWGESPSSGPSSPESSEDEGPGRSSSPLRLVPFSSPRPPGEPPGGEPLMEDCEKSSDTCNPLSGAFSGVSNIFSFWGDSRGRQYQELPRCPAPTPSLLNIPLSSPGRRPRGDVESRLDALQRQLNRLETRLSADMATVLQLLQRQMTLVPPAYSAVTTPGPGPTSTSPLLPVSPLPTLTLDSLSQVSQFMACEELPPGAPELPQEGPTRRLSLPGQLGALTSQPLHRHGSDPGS

[11] = system: Escherichia coli; assay: Antibacterial activity against Escherichia coli K-12 BW25113 assessed as inhibition in bacterial growth incubated for 20 to 24 hrs by CLSI based broth microdilution method; type: functional
[12] = system: Escherichia coli; assay: Antibacterial activity against Escherichia coli K-12 BW25113 deltaTolC assessed as inhibition in bacterial growth incubated for 20 to 24 hrs by CLSI based broth microdilution method; type: functional; details: time 20-24 hrs
[13] = system: Acinetobacter baumannii; assay: Antibacterial activity against Acinetobacter baumannii ATCC BAA-747 assessed as inhibition in bacterial growth incubated for 20 to 24 hrs by CLSI based broth microdilution method; type: functional
[14] = system: Klebsiella pneumoniae; assay: Antibacterial activity against Klebsiella pneumoniae ATCC 10031 assessed as inhibition in bacterial growth incubated for 20 to 24 hrs by CLSI based broth microdilution method; type: functional; details: time 20-24 hrs
[15] = system: Pseudomonas aeruginosa; assay: Antibacterial activity against Pseudomonas aeruginosa NCTC 13437 assessed as inhibition in bacterial growth incubated for 20 to 24 hrs by CLSI based broth microdilution method; type: functional
[16] = system: Staphylococcus aureus; assay: Antibacterial activity against Staphylococcus aureus ATCC 29213 assessed as inhibition in bacterial growth incubated for 20 to 24 hrs by CLSI based broth microdilution method; type: functional; details: time 20-24 hrs
[17] = biological target: T1, hERG (KCNH2) (Homo sapiens, UniProt Q12809); assay: as §1; type: toxicity, cell-based; details: human, CHO cells expressing hERG
T1 sequence (Q12809 whole entry): as above

[18] = system: Escherichia coli; assay: Antibacterial activity against Escherichia coli ATCC 25922 assessed as inhibition in bacterial growth incubated for 20 to 24 hrs by CLSI based broth microdilution method; type: functional; details: time 20-24 hrs
[19] = system: Acinetobacter baumannii; assay: Antibacterial activity against Acinetobacter baumannii ATCC 19606 assessed as inhibition in bacterial growth incubated for 20 to 24 hrs by CLSI based broth microdilution method; type: functional; details: time 20-24 hrs
[20] = system: Klebsiella pneumoniae; assay: Antibacterial activity against Klebsiella pneumoniae ATCC BAA-1705 assessed as inhibition in bacterial growth incubated for 20 to 24 hrs by CLSI based broth microdilution method; type: functional; details: time 20-24 hrs
[21] = system: Pseudomonas aeruginosa; assay: Antibacterial activity against Pseudomonas aeruginosa ATCC 27853 assessed as inhibition in bacterial growth incubated for 20 to 24 hrs by CLSI based broth microdilution method; type: functional; details: time 20-24 hrs
[22] = biological target: T1, hERG (KCNH2); assay: Inhibition of hERG potassium channel expressed in CHO cells at 10 uM by electrophysiological patch clamp assay relative to control; type: toxicity, cell-based; details: CHO cells expressing hERG
[23] = biological target: T1, hERG (KCNH2); assay: Inhibition of hERG potassium channel expressed in CHO cells at 1 uM by electrophysiological patch clamp assay relative to control; type: toxicity, cell-based; details: CHO cells expressing hERG
[24] = Escherichia coli, ATCC 35218, time 20-24 hrs, read-out: MIC
[25] = Escherichia coli, ATCC BAA-2340, time 20-24 hrs, read-out: MIC
[26] = Acinetobacter baumannii, ATCC 51432, time 20-24 hrs, read-out: MIC
[27] = Acinetobacter baumannii, ATCC BAA-747, time 20-24 hrs, read-out: MIC
[28] = Klebsiella pneumoniae, ATCC 700603, time 20-24 hrs, read-out: MIC
[29] = Klebsiella pneumoniae, ATCC BAA-2146, time 20-24 hrs, read-out: MIC
[30] = Pseudomonas aeruginosa, NCTC 13437, time 20-24 hrs, read-out: MIC
[31] = Pseudomonas aeruginosa, NCTC 11451, time 20-24 hrs, read-out: MIC
[32] = Staphylococcus aureus, ATCC BAA-1556, time 20-24 hrs, read-out: MIC
[33] = Staphylococcus aureus, ATCC 29213, read-out: MIC
[34] = Escherichia coli, K-12 BW25113, time 20-24 hrs, read-out: MIC

| Structure (SMILES) | IC50 [1] [µM] | IC50 [9] [µM] | IC50 [10] [µM] | IC20 [10] [µM] | MIC [12] [µg/mL] | MIC [2, 24] [µg/mL] | MIC [3, 25] [µg/mL] | MIC [4, 26] [µg/mL] | MIC [13, 27] [µg/mL] | MIC [14] [µg/mL] | MIC [5, 28] [µg/mL] | MIC [6, 29] [µg/mL] | MIC [15, 30] [µg/mL] | MIC [7, 31] [µg/mL] | MIC [8, 32] [µg/mL] | MIC [16, 33] [µg/mL] | MIC [18] [µg/mL] | MIC [19] [µg/mL] | MIC [20] [µg/mL] | MIC [21] [µg/mL] | further results |
| --- | --- | --- | --- | --- | --- | --- | --- | --- | --- | --- | --- | --- | --- | --- | --- | --- | --- | --- | --- | --- | --- |
| C[C@H](C(=O)Nc1cc(F)c2c(c1)CC(CNCCC1CN(c3cnc4c(n3)NC(=O)CO4)C(=O)O1)C2)N(C)C (stereo in doubt; 2g) | 0.026 | 0.013 | 251 | 81 | – | – | – | – | – | – | – | – | – | – | – | – | – | – | – | – | MIC ([2]; time 20-24 hrs): 0.125 µg/mL (≈ 0.231 µM); MIC ([3]; time 20-24 hrs): 0.125 µg/mL (≈ 0.231 µM); MIC ([4]; time 20-24 hrs): 4 µg/mL (≈ 7.39 µM); MIC ([5]; time 20-24 hrs): 1 µg/mL (≈ 1.85 µM); MIC ([6]; time 20-24 hrs): 8 µg/mL (≈ 14.8 µM); MIC ([7]; time 20-24 hrs): 2 µg/mL (≈ 3.69 µM); MIC ([8]; time 20-24 hrs): 0.5 µg/mL (≈ 0.923 µM) |
| C[C@@H](C(=O)Nc1cc(F)c2c(c1)CC(CNCCC1CN(c3cnc4c(n3)NC(=O)CO4)C(=O)O1)C2)N(C)C (stereo in doubt; 2i) | – | – | 105 | – | ≤ 0.06 | 0.125 (≈ 0.231 µM) | 0.125 (≈ 0.231 µM) | 8 (≈ 14.8 µM) | 0.25 (≈ 0.462 µM) | ≤ 0.06 | 2 (≈ 3.69 µM) | 8 (≈ 14.8 µM) | 2 (≈ 3.69 µM) | 4 (≈ 7.39 µM) | 1 (≈ 1.85 µM) | 0.25 (≈ 0.462 µM) | – | – | – | – | MIC ([11]; time 20-24 hrs): <=0.06 ug ml-1; IC20 [17]: 33 µM |
| O=C(O)COc1cc(F)c2c(c1)CC(CNCCC1CN(c3ccc4c(n3)NC(=O)CO4)C(=O)O1)C2 (stereo unspecified) | 0.6 | 0.37 | – | – | 8 (≈ 16 µM) | > 64 | > 64 | > 64 | > 64 | 16 (≈ 32 µM) | > 64 | > 64 | > 64 | > 64 | > 64 | > 64 | > 64 | > 64 | > 64 | > 64 | MIC [11, 34]: > 64 µg/mL |
| C[C@H](C(=O)Nc1cc(F)c2c(c1)CC(CNCCC1CN(c3cnc4c(n3)NC(=O)CO4)C(=O)O1)C2)N(C)C (stereo in doubt; 2h) | – | – | 126 | 55 | – | – | – | – | – | – | – | – | – | – | – | – | – | – | – | – | MIC ([4]; time 20-24 hrs): 8 µg/mL (≈ 14.8 µM); MIC ([13]; time 20-24 hrs): 0.125 µg/mL (≈ 0.231 µM); MIC ([5]; time 20-24 hrs): 2 µg/mL (≈ 3.69 µM); MIC ([15]; time 20-24 hrs): 4 µg/mL (≈ 7.39 µM); MIC ([7]; time 20-24 hrs): 4 µg/mL (≈ 7.39 µM); MIC ([8]; time 20-24 hrs): 1 µg/mL (≈ 1.85 µM) |
| CN(C(=O)CN1CCC1)c1cc(F)c2c(c1)CC(CNCCC1CN(c3cnc4c(n3)NC(=O)CO4)C(=O)O1)C2 (stereo unspecified) | 1.1 | 0.15 | – | – | 1 (≈ 1.81 µM) | 32 (≈ 57.8 µM) | 64 (≈ 116 µM) | > 64 | > 64 | > 64 | > 64 | > 64 | 64 (≈ 116 µM) | > 64 | > 64 | 64 (≈ 116 µM) | 32 (≈ 57.8 µM) | > 64 | > 64 | 64 (≈ 116 µM) | MIC [11, 34]: 16 µg/mL (≈ 28.9 µM) |
| C[C@@H](C(=O)Nc1cc(F)c2c(c1)CC(CNCCC1CN(c3cnc4c(n3)NC(=O)CO4)C(=O)O1)C2)N(C)C (stereo in doubt; 2j) | – | – | 178 | 66 | – | – | – | – | – | – | – | – | – | – | – | – | – | – | – | – | MIC ([11]; time 20-24 hrs): 0.125 µg/mL (≈ 0.231 µM); MIC ([2]; time 20-24 hrs): 0.25 µg/mL (≈ 0.462 µM); MIC ([3]; time 20-24 hrs): 0.25 µg/mL (≈ 0.462 µM); MIC ([13]; time 20-24 hrs): 0.5 µg/mL (≈ 0.923 µM); MIC ([15]; time 20-24 hrs): 2 µg/mL (≈ 3.69 µM); MIC [16]: 0.25 µg/mL (≈ 0.462 µM) |
| N#Cc1cccc2c1CC(CNCCC1CN(c3ccc4c(n3)NC(=O)CO4)C(=O)O1)C2 (stereo unspecified) | – | 0.004 | – | – | ≤ 0.06 | 0.125 (≈ 0.288 µM) | ≤ 0.06 | ≤ 0.06 | ≤ 0.06 | ≤ 0.06 | 1 (≈ 2.31 µM) | 4 (≈ 9.23 µM) | 0.5 (≈ 1.15 µM) | 1 (≈ 2.31 µM) | ≤ 0.06 | ≤ 0.06 | ≤ 0.06 | 0.125 (≈ 0.288 µM) | 1 (≈ 2.31 µM) | 0.5 (≈ 1.15 µM) | inhibition at 10 µM [22]: 99%; MIC [11, 34]: ≤ 0.06 µg/mL; inhibition at 1 µM [23]: 55%; IC20 [17]: 0.45 µM |
